# Reference: ChEMBL document CHEMBL1156824, “Physicochemical space for optimum oral bioavailability: contribution of human intestinal absorption and first-pass elimination” (J Med Chem, 2010)
# Species on record: Homo sapiens
# Assay: Hepatic clearance in human
# Conditions: in vivo
row,Structure (SMILES),CL
1,C[C@](N)(Cc1ccc(O)c(O)c1)C(=O)O [METHYLDOPA],1.4 mL/min/kg
2,N[C@@H]1CN(c2c(F)cc3c(=O)c(C(=O)O)cn([C@@H]4C[C@@H]4F)c3c2Cl)CC12CC2 [SITAFLOXACIN ANHYDROUS],0.9 mL/min/kg
3,O=P(O)(O)C(O)(Cc1cccnc1)P(=O)(O)O [RISEDRONIC ACID],0.2 mL/min/kg
4,CCN(CC)CCNC(=O)c1ccc(NS(C)(=O)=O)cc1 [SEMATILIDE],0.2 mL/min/kg
5,C#CCN(C)[C@H](C)Cc1ccccc1 [SELEGILINE],19.8 mL/min/kg
6,COc1ccc([C@@H]2Sc3ccccc3N(CCN(C)C)C(=O)[C@@H]2OC(C)=O)cc1 [DILTIAZEM],3.8 mL/min/kg
7,CCNCC(O)c1cccc(O)c1 (stereo not given) [ETILEFRINE],10 mL/min/kg
8,CCOc1ccc(/C=C2\NCCc3cc(OCC)c(OCC)cc32)cc1OCC [DROTAVERINE],3.5 mL/min/kg
9,O=C1Nc2ccc(Cl)cc2C(c2ccccc2Cl)=NC1O (stereo not given) [LORAZEPAM],1 mL/min/kg
10,O=c1[nH]cnc2c1ncn2[C@H]1CC[C@@H](CO)O1 [DIDANOSINE],4.2 mL/min/kg
11,Cc1ccc(O)c([C@H](CCN(C(C)C)C(C)C)c2ccccc2)c1 [TOLTERODINE],8.4 mL/min/kg
12,CN(Cc1cnc2nc(N)nc(N)c2n1)c1ccc(C(=O)N[C@@H](CCC(=O)O)C(=O)O)cc1 [METHOTREXATE],0.4 mL/min/kg
13,Cc1onc(-c2c(Cl)cccc2Cl)c1C(=O)N[C@@H]1C(=O)N2[C@@H]1SC(C)(C)[C@@H]2C(=O)O [DICLOXACILLIN],0.8 mL/min/kg
14,CC(C)(C)NC(=O)[C@H]1CC[C@H]2[C@@H]3CC=C4C=C(C(=O)O)CC[C@]4(C)[C@H]3CC[C@]12C [EPRISTERIDE],0.3 mL/min/kg
15,CCCC1O[C@@H]2C[C@H]3[C@@H]4CCC5=CC(=O)C=C[C@]5(C)[C@H]4[C@@H](O)C[C@]3(C)[C@]2(C(=O)CO)O1 (stereo not given in full) [BUDESONIDE],19 mL/min/kg
16,Cc1ccccc1N1C(=O)c2cc(S(N)(=O)=O)c(Cl)cc2NC1C (stereo not given) [METOLAZONE],0.3 mL/min/kg
17,COc1c(N2CCNC(C)C2)c(F)cc2c(=O)c(C(=O)O)cn(C3CC3)c12 (stereo not given) [GATIFLOXACIN],0.5 mL/min/kg
18,C=CCc1ccccc1OCC(O)CNC(C)C (stereo not given) [ALPRENOLOL],14.4 mL/min/kg
19,CN(C)CCc1c[nH]c2ccc(C[C@H]3COC(=O)N3)cc12 [ZOLMITRIPTAN],4.5 mL/min/kg
20,CN[C@H](CC(C)C)C(=O)N[C@H]1C(=O)N[C@@H](CC(N)=O)C(=O)N[C@H]2C(=O)N[C@H]3C(=O)N[C@H](C(=O)N[C@H](C(=O)O)c4cc(O)cc(O)c4-c4cc3ccc4O)[C@H](O)c3ccc(c(Cl)c3)Oc3cc2cc(c3O[C@@H]2O[C@H](CO)[C@@H](O)[C@H](O)[C@H]2O[C@H]2C[C@](C)(N)[C@H](O)[C@H](C)O2)Oc2ccc(cc2Cl)[C@H]1O [VANCOMYCIN],0.3 mL/min/kg
21,CCCCc1ncc(/C=C(\Cc2cccs2)C(=O)O)n1Cc1ccc(C(=O)O)cc1 [EPROSARTAN],1.2 mL/min/kg
22,CC1(C)S[C@@H]2[C@H](NC(=O)COc3ccccc3)C(=O)N2[C@H]1C(=O)O [PENICILLIN V],5.1 mL/min/kg
23,Cc1[nH]c(=O)c(C#N)cc1-c1ccncc1 [MILRINONE],1.2 mL/min/kg
24,CC[C@H](C)C(=O)O[C@H]1C[C@H](O)C=C2C=C[C@H](C)[C@H](CC[C@@H](O)C[C@@H](O)CC(=O)O)[C@H]21 [PRAVASTATIN],7.7 mL/min/kg
25,COCCOC(=O)C1=C(C)NC(C)=C(C(=O)OC(C)C)C1c1cccc([N+](=O)[O-])c1 (stereo not given) [NIMODIPINE],15 mL/min/kg

row,Structure (SMILES),CL
1,CN(C)C(=O)Oc1ccc[n+](C)c1 [PYRIDOSTIGMINE],2.4 mL/min/kg
2,C[C@]12CC[C@@H]3c4ccc(OC(=O)N(CCCl)CCCl)cc4CC[C@H]3[C@@H]1CC[C@@H]2OP(=O)(O)O [ESTRAMUSTINE PHOSPHATE],0.9 mL/min/kg
3,N=C(N)c1ccc(CNC(=O)[C@@H]2CCN2C(=O)[C@H](NCC(=O)O)C2CCCCC2)cc1,0.3 mL/min/kg
4,CNS(=O)(=O)CCc1ccc2[nH]cc(C3CCN(C)CC3)c2c1,3.5 mL/min/kg
5,CC(=O)NC[C@H]1CN(c2ccc(N3CCOCC3)c(F)c2)C(=O)O1 [LINEZOLID],1.2 mL/min/kg
6,CCC(C)n1ncn(-c2ccc(N3CCN(c4ccc(OCC5COC(Cn6cncn6)(c6ccc(Cl)cc6Cl)O5)cc4)CC3)cc2)c1=O (stereo not given) [ITRACONAZOLE],5.1 mL/min/kg
7,Nc1ncnc2c1ncn2CCOCP(=O)(O)O [ADEFOVIR],0.4 mL/min/kg
8,C=CC[C@@H]1/C=C(\C)C[C@H](C)C[C@H](OC)[C@H]2O[C@@](O)(C(=O)C(=O)N3CCCC[C@H]3C(=O)O[C@H](/C(C)=C/[C@@H]3CC[C@@H](O)[C@H](OC)C3)[C@H](C)[C@@H](O)CC1=O)[C@H](C)C[C@@H]2OC [TACROLIMUS ANHYDROUS],0.7 mL/min/kg
9,Cc1cccc(C)c1NC(=O)C(C)N (stereo not given) [TOCAINIDE],1.4 mL/min/kg
10,CO/N=C(\C(=O)N[C@@H]1C(=O)N2C(C(=O)O)=C(COC(N)=O)CS[C@H]12)c1ccco1 [CEFUROXIME],0.1 mL/min/kg
11,CC1COc2c(N3CCN(C)CC3)c(F)cc3c(=O)c(C(=O)O)cn1c23 (stereo not given) [OFLOXACIN],0.8 mL/min/kg
12,COc1nc(C)nc(Cl)c1N=C1NCCN1 [MOXONIDINE],3.5 mL/min/kg
13,CCC(CC)O[C@@H]1C=C(C(=O)O)C[C@H](N)[C@H]1NC(C)=O [OSELTAMIVIR CARBOXYLATE],0.3 mL/min/kg
14,CC1=C(C(=O)O)N2C(=O)[C@@H](NC(=O)[C@H](N)c3ccc(O)cc3)[C@H]2SC1 [CEFADROXIL],0.2 mL/min/kg
15,CCN(CC)CCNC(=O)c1cc(Cl)c(N)cc1OC [METOCLOPRAMIDE],4.6 mL/min/kg
16,CC(C)[C@H]1CC[C@H](C(=O)N[C@H](Cc2ccccc2)C(=O)O)CC1 [NATEGLINIDE],1.7 mL/min/kg
17,CC(C)NCC(O)COc1ccc(COCCOC(C)C)cc1 (stereo not given) [BISOPROLOL],1.4 mL/min/kg
18,CC(C)(C)NC[C@H](O)COc1nsnc1N1CCOCC1 [TIMOLOL],7.1 mL/min/kg
19,Nc1nc2c(c(=O)[nH]1)N(C=O)C(CNc1ccc(C(=O)N[C@@H](CCC(=O)O)C(=O)O)cc1)CN2 (stereo not given in full) [LEUCOVORIN],4.5 mL/min/kg
20,Nc1ccn(C[C@@H](CO)OCP(=O)(O)O)c(=O)n1.O.O [CIDOFOVIR],0.3 mL/min/kg
21,CC(C)NCC(O)COc1cccc2ccccc12 (stereo not given) [PROPRANOLOL],10.8 mL/min/kg
22,CC1=C(C(=O)O)N2C(=O)[C@@H](NC(=O)[C@H](N)C3=CCC=CC3)[C@H]2SC1 [CEPHRADINE],0.2 mL/min/kg
23,CCN(CC)C(=O)/C(C#N)=C/c1cc(O)c(O)c([N+](=O)[O-])c1 [ENTACAPONE],5.3 mL/min/kg
24,CO[C@H]1/C=C/O[C@@]2(C)Oc3c(C)c(O)c4c(O)c(c(/C=N/N5CCN(C)CC5)c(O)c4c3C2=O)NC(=O)/C(C)=C\C=C\[C@H](C)[C@H](O)[C@@H](C)[C@@H](O)[C@@H](C)[C@H](OC(C)=O)[C@@H]1C [RIFAMPIN],1.3 mL/min/kg
25,CC(=O)Nc1ccc(OCC(O)CNC(C)C)cc1 (stereo not given) [PRACTOLOL],0.3 mL/min/kg

row,Structure (SMILES),CL
1,CN1CCN(C(=O)OC2c3nccnc3C(=O)N2c2ccc(Cl)cn2)CC1 (stereo not given) [ZOPICLONE],3.2 mL/min/kg
2,C[C@H]1O[C@@H](n2cc(F)c(=O)[nH]c2=O)[C@H](O)[C@@H]1O [DOXIFLURIDINE],6.7 mL/min/kg
3,COc1cc(OC)c(C(=O)CCCN2CCCC2)c(OC)c1 [BUFLOMEDIL],4.3 mL/min/kg
4,O=C(O)[C@H]1/C(=C/CO)O[C@@H]2CC(=O)N21 [CLAVULANIC ACID],1.8 mL/min/kg
5,COc1ccc(Cc2nccc3cc(OC)c(OC)cc23)cc1OC [PAPAVERINE],11 mL/min/kg
6,C[C@@H]1O[C@@H]1P(=O)(O)O [FOSFOMYCIN],0.02 mL/min/kg
7,CN1C(=O)C(O)N=C(c2ccccc2Cl)c2cc(Cl)ccc21 (stereo not given) [LORMETAZEPAM],4 mL/min/kg
8,CC(C)(C)NCC(O)c1cc(O)cc(O)c1 (stereo not given) [TERBUTALINE],1.2 mL/min/kg
9,N=C(N)NC(=O)Cc1c(Cl)cccc1Cl [GUANFACINE],2.9 mL/min/kg
10,CN1C2CCCC1CC(NC(=O)c1nn(C)c3ccccc13)C2 (stereo not given) [GRANISETRON],8.1 mL/min/kg
11,CC1(C)S[C@@H]2[C@H](NC(=O)[C@H](N)c3ccccc3)C(=O)N2[C@H]1C(=O)O [AMPICILLIN],1.6 mL/min/kg
12,c1ccc(C2(c3ccccc3)CC2C2=NCCN2)cc1 (stereo not given) [CIFENLINE],4.4 mL/min/kg
13,CCN(CC)CCCC(C)Nc1ccnc2cc(Cl)ccc12 (stereo not given) [CHLOROQUINE],1.8 mL/min/kg
14,C[C@H](/C=C/[C@H](C)C(C)(C)O)[C@H]1CC[C@H]2/C(=C/C=C3C[C@@H](O)C[C@H](O)C3)CCC[C@]12C [PARICALCITOL],0.9 mL/min/kg
15,CC[C@]1(O)C[C@@H]2CN(CCc3c([nH]c4ccccc34)[C@@](C(=O)OC)(c3cc4c(cc3OC)N(C)[C@H]3[C@@](O)(C(=O)OC)[C@H](OC(C)=O)[C@]5(CC)C=CCN6CC[C@]43[C@@H]65)C2)C1 [VINBLASTINE],0.5 mL/min/kg
16,COc1ccccc1OCCNCC(O)COc1cccc2[nH]c3ccccc3c12 (stereo not given) [CARVEDILOL],7.7 mL/min/kg
17,COC(=O)C1=C(C)NC(C)=C(C(=O)OCC(C)C)C1c1ccccc1[N+](=O)[O-] (stereo not given) [NISOLDIPINE],15 mL/min/kg
18,N[C@@H](CC(=O)N1CCn2c(nnc2C(F)(F)F)C1)Cc1cc(F)c(F)cc1F [SITAGLIPTIN],1.3 mL/min/kg
19,COCCCOc1ccnc(C[S+]([O-])c2nc3ccccc3[nH]2)c1C (stereo not given) [RABEPRAZOLE],4 mL/min/kg
20,NC1CCN(c2c(F)cc3c(=O)c(C(=O)O)cn(C4CC4)c3c2Cl)C1 (stereo not given) [CLINAFLOXACIN],1.5 mL/min/kg
21,CN(CCOc1ccc(CC2SC(=O)NC2=O)cc1)c1ccccn1 (stereo not given) [ROSIGLITAZONE],0.7 mL/min/kg
22,CN[C@@H]1CCc2[nH]c3ccc(C(N)=O)cc3c2C1 [FROVATRIPTAN],1.5 mL/min/kg
23,CN(C)[C@@H]1C(O)=C(C(N)=O)C(=O)[C@@]2(O)C(O)=C3C(=O)c4c(O)cccc4[C@@](C)(O)[C@H]3C[C@@H]12 [TETRACYCLINE],0.6 mL/min/kg
24,CC1(C)S[C@@H]2[C@H](NC(=O)[C@H](N)c3ccc(O)cc3)C(=O)N2[C@H]1C(=O)O [AMOXICILLIN],1.4 mL/min/kg
25,CC(C)(C)NCC(O)COc1ccc(NC(=O)NC2CCCCC2)cc1 (stereo not given) [TALINOLOL],2.3 mL/min/kg
